Results: patent publication US8541216B2 (priority 2009, dated 2013)

Tested on: beet armyworm eggs
Assay: beet armyworm egg bioassay of separated, semipurified dunaimycins (96-well artificial diet)
Assay type: in vivo, beet armyworm (Spodoptera exigua)
Experimental: The separated, identified dunaimycins were then tested for bioactivity against beet armyworm eggs as follows. Stock solutions were provided as 15% aqueous ethanol solution of various semipurified dunaimycins, either alone or in combinations. For reference purposes, Javelin WDG (Bacillus thuringiensis subspecies Kurstaki; ThermoTrilogy Inc) was weighed out and diluted to give a 1,000 ppm stock solution (positive chemical standard). These stock solutions were transferred to a deep well microtitre plate: 1.4 ml of each stock solutions were placed in the 2 ml well across the top row (A wells 1-12). A Packard Multiprobe II liquid handling system (Perkin Elmer Inc.) then carried out a dilution program, first adding 700 μls of DI H2O to the remaining 84 wells (B-H 1-12). The four tip arm then performed a sequence of aspiration and dispensing steps to mix the samples and then transferred them into an adjoining well to give eight 50% serially diluted samples containing 700 μl per well. The robot then used a transfer program to pipette all of the serial diluted samples to labeled 96 well plates. Aliquots containing 40 μl of each dilution were dispensed into six wells across a microtitre plate containing ˜200 μl of artificial diet/well. […] Mortality was recorded as the number dead over the number treated and expressed as control corrected percent mortality. […]

CCC(O)CC1OC2(CCC1C)CC1OC(=O)/C=C\C(C)C(O)C(C)C(O)CC(O)C(C)CCCCC/C=C/C(CC(C)C)C(=O)CC(O2)C1C (centres unmarked) [Dunaimycin A1]
LD50 (ppm) BAW assay (Tested alone): Inactive up to 1000 ppm | insecticidal activity (active or inactive dunaimycin) (classification of purified species, inactive up to about 1000 ppm): Inactive
